Measurements: patent US5739112A, “Inhibitors of factor Xa” (Corvas International, Inc., priority 1995, dated 1998)
pIC50, pKi: −log10 of the molar value. Numbered stars: 1 amine (or outer) side, 2 acyl side, 3 side chain; on linkers, the order of the positions; unused ones are H or OH. Square brackets hold non-standard residues; d marks the D form. Peptide text beside a SMILES is read from it. * marks the point of attachment. 1Nal = N[C@@H](Cc1cccc2ccccc12)C(=O)O; 2Nal = N[C@@H](Cc1ccc2ccccc2c1)C(=O)O; d2Nal = N[C@H](Cc1ccc2ccccc2c1)C(=O)O; dPhg = N[C@@H](C(=O)O)c1ccccc1; Suc = O=C(CCC(=O)[*:2])[*:1]; Boc = CC(C)(C)OC(=O)*

Tests used:
Human factor Xa [1] = target: T1, Human factor Xa (Homo sapiens, UniProt P00742); assay: Factor Xa assay (chromogenic substrate S-2765); assay type: biochemical; details: for pIC50: 60 min preincubation at room temperature, TBSA pH 7.4; for Percent Selectivity Xa: taken as 100 by definition
T1 construct: Human factor X contains a light-chain subunit containing 139 amino acid residues; purchased Enzyme Research Laboratories
Protocol: (§1) To assay their activities, the compounds of the present invention are dissolved in buffer to give solutions containing concentrations ranging under assay concentrations from 0 to about 100 μM. The enzyme to be tested is then added to a solution containing a specified concentration of the test compound. Then after an incubation period, synthetic substrate for the enzyme being tested is added. The rate of substrate turnover is determined spectrophotometrically. The IC50 of the test compound is determined for each test compound in assays for factor Xa, factor XIa, thrombin and tPA. IC50 is that concentration of test compound giving 50% inhibition of the substrate turnover. Percent selectivity is used to indicate selectivity of a compound in inhibiting Factor Xa in comparison with either Factor XIa, thrombin or tPA. Percent selectivity of a particular compound for either Factor XIa, thrombin or tPA refers to a number obtained by dividing the product of one hundred and the IC50 of the compound for Factor Xa by the IC50 of the compound for either Factor XIa, thrombin or tPA.
(§2) The specificity of the peptide aldehydes through was determined by measurement of their IC50 against factor Xa, factor XIa, thrombin and tissue plasminogen activator (tPA). Peptide aldehyde which has been described in the art was run as a comparison. A specific concentration of enzyme and its substrate were challenged with varying concentrations: of inhibitor. IC50 is that concentration of inhibitor giving 50% inhibition of catalytic activity, under the assay conditions Specific assay procedures used are presented below.
Enzyme activity was determined using as substrate, S2765 (N-a-benzyloxycarbonyl-D-argininyl-L-glycyl-L-arginine-p-nitroanilide dihydrochloride) which was obtained from Kabi Diagnostica. The substrate was made up in deionized water prior to use.
Human factor Xa was obtained from Enzyme Research Laboratories. The enzyme was diluted into TBSA prior to use.
(§3) The assay was run by combining in appropriate wells 50 μL of TBSA, 50 μL of inhibitor in TBSA or TBSA (as negative control) and 50 μL of 2 nM human Factor Xa or TBSA (as background control). After incubating this mixture for 60 minutes at room temperature, 50 μL of 1 mM S-2765 was added to each well and the initial rate of the change of the optical density at 405 nm (OD405 nm) for each well was determined. OD405 nm was measured every 10 seconds for 5 minutes.

Human factor XIa = target: T2, Human factor XIa (Homo sapiens, UniProt P03951); assay: Factor XIa assay (chromogenic substrate S-2366); assay type: biochemical; details: for Percent Selectivity XIa: 100 times IC50 for factor Xa divided by IC50 for factor XIa; for pIC50: 60 min preincubation at room temperature, >25 means less than 50% inhibition at 25 μM
T2 construct: purchased Enzyme Research Laboratories, Inc
Protocol: as §1, §2
Enzyme activity was determined using as substrate, S2366 (L-pyroglutamyl-L-prolyl-L-arginine-p-nitroanilide hydrochloride) which was obtained from Kabi Diagnostica. The substrate was made up in deionized water prior to use.
Human factor XIa was obtained from Enzyme Research Laboratories, Inc. The enzyme was diluted into TBSA prior to use.
as §3, with “Factor Xia” for “Factor Xa”, “of 6” for “of 1”, “mM S-2366” for “mM S-2765”

Human α-thrombin = target: T3, Human α-thrombin (Homo sapiens, UniProt P00734); assay: Thrombin assay (chromogenic substrate S-2238); assay type: biochemical; details: for Percent Selectivity Thrombin: 100 times IC50 for factor Xa divided by IC50 for thrombin; for pIC50: 60 min preincubation at room temperature, >25 means less than 50% inhibition at 25 μM
T3 construct: purchased Enzyme Research Laboratories, Inc
Protocol: as §1, §2
Enzyme activity was determined using as substrate, S2238 (D-phenylalanyl-L-pipecolyl-L-arginine-p-nitroanilide dihydrochloride) which was obtained from Kabi Diagnostica. The substrate was made up in deionized water prior to use.
Human α-thrombin was obtained from Enzyme Research Laboratories, Inc. The enzyme was diluted into TBSA prior to use.
(§4) The assay was run by combining in appropriate wells 50 μL of TBSA, 50 μL of inhibitor in TBSA or TBSA (as negative control) and 50 μL of 4 nM human α-thrombin or TBSA (as background control). After incubating this mixture for 60 minutes at room temperature, 50 μL of 0.24 mM S-2238 was added to each well and the initial rate of the change of optical density at 405 nm (OD405 nm) for each well was determined. OD405 nm was measured every 10 seconds for 5 minutes.

[2] = target: T4, Human recombinant t-PA (Activase) (Homo sapiens, UniProt P00750); assay: tPA assay (substrate Pefachrome tPA); assay type: biochemical; details: for Percent Selectivity tPA: 100 times IC50 for factor Xa divided by IC50 for tPA; for pIC50: 60 min preincubation at room temperature, >25 means less than 50% inhibition at 25 μM
T4 construct: purchased Genentech, Inc. Activase
Protocol: as §1, §2
Enzyme activity was determined using as substrate, Pefachrome tPA (O-methylsulfonate-D-hexahydrotyrosine-L-glycyl-L-argini ne-p-nit roanilide acetate salt) which was obtained from Centerchem, Inc. The substrate was made up in deionized water prior to use.
Human recombinant t-PA (Activase®) was obtained. from Genentech, Inc. The enzyme was reconstituted with water, then diluted into TBSA prior to use.
as §4, with “recombinant tPA” for “α-thrombin”, “4” for “0.24”, “Pefachrome tPA” for “S-2238”

Human factor Xa [3] = target: T1, Human factor Xa; details: Hitomi et al., p. 166; read-out: inhibitor constant, human factor Xa; cited from earlier work
human thrombin = human thrombin (Homo sapiens, UniProt P00734); details: Hitomi et al., p. 166; read-out: inhibitor constant, human thrombin; cited from earlier work

T4 sequence (P00750 36-562): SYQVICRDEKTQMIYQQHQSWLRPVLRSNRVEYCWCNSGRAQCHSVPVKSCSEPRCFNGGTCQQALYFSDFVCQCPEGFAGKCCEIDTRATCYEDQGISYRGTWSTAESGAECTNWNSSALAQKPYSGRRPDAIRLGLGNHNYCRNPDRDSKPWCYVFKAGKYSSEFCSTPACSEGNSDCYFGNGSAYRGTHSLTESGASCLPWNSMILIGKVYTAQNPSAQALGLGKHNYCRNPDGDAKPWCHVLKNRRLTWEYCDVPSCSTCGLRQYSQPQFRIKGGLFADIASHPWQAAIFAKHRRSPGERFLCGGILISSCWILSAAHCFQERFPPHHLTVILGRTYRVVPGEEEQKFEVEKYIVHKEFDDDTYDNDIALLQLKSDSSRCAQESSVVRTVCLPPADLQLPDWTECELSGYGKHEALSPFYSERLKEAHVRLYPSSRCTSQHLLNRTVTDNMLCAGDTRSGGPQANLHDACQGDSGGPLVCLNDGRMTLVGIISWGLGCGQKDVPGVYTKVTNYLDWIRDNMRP
T2 sequence (P03951 388-625 limits assumed): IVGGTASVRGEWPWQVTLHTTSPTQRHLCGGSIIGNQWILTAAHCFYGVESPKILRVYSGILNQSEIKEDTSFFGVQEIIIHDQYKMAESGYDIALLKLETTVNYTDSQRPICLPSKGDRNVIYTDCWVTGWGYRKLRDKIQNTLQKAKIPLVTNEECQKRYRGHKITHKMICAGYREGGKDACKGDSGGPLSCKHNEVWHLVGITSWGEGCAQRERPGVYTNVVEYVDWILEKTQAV
T2 sequence (P03951 19-387 partner limits assumed): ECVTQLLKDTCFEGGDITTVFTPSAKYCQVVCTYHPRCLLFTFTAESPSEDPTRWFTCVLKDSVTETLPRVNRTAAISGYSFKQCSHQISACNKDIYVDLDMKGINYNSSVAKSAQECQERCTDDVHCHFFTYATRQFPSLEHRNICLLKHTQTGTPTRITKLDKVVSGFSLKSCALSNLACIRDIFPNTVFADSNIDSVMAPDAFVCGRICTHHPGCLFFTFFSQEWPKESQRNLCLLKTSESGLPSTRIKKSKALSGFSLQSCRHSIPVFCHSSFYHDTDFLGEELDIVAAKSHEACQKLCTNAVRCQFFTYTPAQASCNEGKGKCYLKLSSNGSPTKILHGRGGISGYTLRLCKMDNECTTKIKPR
T1 sequence (P00742 235-488 limits assumed): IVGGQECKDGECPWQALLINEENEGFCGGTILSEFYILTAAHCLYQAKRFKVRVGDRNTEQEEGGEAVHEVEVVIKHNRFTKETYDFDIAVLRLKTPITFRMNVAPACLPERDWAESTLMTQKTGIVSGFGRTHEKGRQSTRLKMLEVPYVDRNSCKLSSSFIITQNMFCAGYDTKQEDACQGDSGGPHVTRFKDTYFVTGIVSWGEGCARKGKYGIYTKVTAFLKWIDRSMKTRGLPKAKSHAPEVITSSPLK
T1 sequence (P00742 41-179 partner limits assumed): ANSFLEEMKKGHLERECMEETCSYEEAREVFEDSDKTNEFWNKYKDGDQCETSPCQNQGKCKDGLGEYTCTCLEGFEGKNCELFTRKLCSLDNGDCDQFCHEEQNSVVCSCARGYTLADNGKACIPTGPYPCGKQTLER

Row | SMILES | pIC50 (Human factor Xa [1]) | Percent Selectivity Xa (Human factor Xa [1]) | Percent Selectivity XIa (Human factor XIa) | pIC50 (Human factor XIa) | Percent Selectivity Thrombin (Human α-thrombin) | pIC50 (Human α-thrombin) | Percent Selectivity tPA [2] | pIC50 [2] | pKi (Human factor Xa [3]) | pKi (human thrombin)
1 | CC(C)(C)OC(=O)N[C@H](Cc1ccc2ccccc2c1)C(=O)N[C@@H](Cc1ccccc1)C(=O)N[C@H](C=O)CCCNC(=N)N [[1], N-t-butoxycarbonyl-D-3-(2-naphthyl)alanyl-L-phenylalanyl-L-argininal] (Boc-[d2Nal]-Phe-Arg-aldehyde) | 6.66 | 100 | 1.4 | 4.80 | 1.6 | 4.85 | < 0.9 | < 4.60 |  | 
2 | CC(C)(C)OC(=O)N[C@@H](C(=O)N[C@@H](Cc1ccccc1)C(=O)N[C@H](C=O)CCCN=C(N)N)c1ccccc1 [[2], N-t-Butoxycarbonyl-D-2-Phenylglycyl-L-phenylalanyl-L-Arainial] (Boc-[dPhg]-Phe-Arg-aldehyde) | 6.19 | 100 | 4.9 | 4.89 | < 2.6 | < 4.60 | < 2.6 | < 4.60 |  | 
3 | CC(C)(C)OC(=O)N[C@H](Cc1ccccc1)C(=O)N1CCC[C@H]1C(=O)N[C@H](C=O)CCCNC(=N)N [[23], N-Boc-D-phenylalanyl-L-prolyl-L-argininal, reference compound] | 5.24 | 100 | 317 | 5.74 | 22,800 | 7.60 | 518 | 5.96 |  | 
4 | N=C(N)NCCC[C@@H](C=O)NC(=O)[C@H](Cc1cccc2ccccc12)NC(=O)[C@@H](Cc1ccccc1)NC(=O)CCC(=O)O [[8], N-succinyl-D-phenylalanyl-L-3-(1-naphthyl)alanyl-L-argininal] (Suc-[dF]-[1Nal]-Arg-aldehyde) | 7.64 | 100 | 0.12 | 4.70 | < 0.1 | < 4.60 | < 0.1 | < 4.60 |  | 
5 | CC(C)(C)OC(=O)N[C@H](Cc1ccccc1)C(=O)N[C@@H](Cc1cccc2ccccc12)C(=O)N[C@H](C=O)CCCNC(=N)N [[5], N-t-butoxycarbonyl-D-phenylalanyl-L-3-(1-naphthyl)alanyl-L-argininal] (Boc-[dF]-[1Nal]-Arg-aldehyde) | 7.52 | 100 | 0.2 | 4.85 | 0.2 | 4.89 | < 0.1 | < 4.60 |  | 
6 | CC(C)CCC(=O)N[C@H](Cc1ccccc1)C(=O)N[C@@H](Cc1cccc2ccccc12)C(=O)N[C@H](C=O)CCCNC(=N)N [[9]] | 6.77 | 100 | < 0.68 | < 4.60 | < 0.68 | < 4.60 |  |  |  | 
7 | CC(C)(C)OC(=O)NC(C(=O)N[C@@H](Cc1cccc2ccccc12)C(=O)N[C@H](C=O)CCCNC(=N)N)c1ccc(-c2ccccc2)cc1 (stereo partly drawn) [[7], N-t-butoxycarbonyl-D,L-(α-biphenyl)glycyl-L-3-(1-naphthyl)alanyl-L-argininal] | 5.60 | 100 | < 10 | < 4.60 | < 10 | < 4.60 | < 10 | < 4.60 |  | 
8 | N=C(N)c1ccc2cc(OC(=O)c3ccc(N=C(N)N)cc3)ccc2c1 [FUT-75, 6-amidino-2-naphthyl-p-guanidinobenzoate dimethanesulfonate] |  |  |  |  |  |  |  |  | 5.39 | 5.89
9 | CC(C)(C)OC(=O)N[C@H](Cc1ccccc1)C(=O)N[C@@H](Cc1ccc2ccccc2c1)C(=O)N[C@H](C=O)CCCNC(=N)N [[3], N-t-butoxycarbonyl-D-phenylalanyl-L-3-(2-naphthyl)alanyl-L-argininal] (Boc-[dF]-[2Nal]-Arg-aldehyde) | 6.05 | 100 | 3.6 | 4.60 | 3.6 | 4.60 | < 3.6 | < 4.60 |  | 
10 | CC(=O)N[C@H](Cc1ccccc1)C(=O)N[C@@H](Cc1cccc2ccccc12)C(=O)N[C@H](C=O)CCCNC(=N)N [[6], N-acetyl-D-phenylalanyl-L-3-(1-naphthyl)alanyl-L-argininal] (Ac-[dF]-[1Nal]-Arg-aldehyde) | 7.60 | 100 | 7.8 | 6.49 | < 0.1 | < 4.60 | < 0.1 | < 4.60 |  | 
11 | CC(C)(C)OC(=O)N[C@H](Cc1ccccc1)C(=O)N1CC[C@H](c2ccccc2)[C@H]1C(=O)N[C@H](C=O)CCCNC(=N)N (relative stereo) [[10], N-t-butoxycarbonyl-D-phenylalanyl-L-(3-trans-phenyl)prolinyl-L-argininal] | 6.20 | 100 | < 2.5 | < 4.60 | < 2.5 | < 4.60 | < 2.5 | < 4.60 |  | 
12 | CC(C)(C)OC(=O)N[C@H](Cc1ccccc1)C(=O)N[C@@H](Cc1ccccc1)C(=O)N[C@H](C=O)CCCNC(=N)N [[4], N-t-butoxycarbonyl-D-phenylalinyl-L-phenylalinyl-L-argininal] (Boc-[dF]-Phe-Arg-aldehyde) | 6.68 | 100 | 0.8 | 4.60 | < 0.8 | < 4.60 | < 0.8 | < 4.60 |  | 
